Legend:
Format in all cases: in vivo
Apera spica-venti [1] = experiment: Test Example 4: herbicidal effect by soil treatment (symbol L); settings: 320 g/ha
Outline: (§1)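 Seeds were sown in sterilized diluvial soil, covered with about 1.5 cm of soil, and the soil surface was sprayed with a water-diluted emulsion of the compound at a predetermined rate. Plants grew in a greenhouse at 25° C. to 30° C.; effects were scored visually 3 weeks after application.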

soybean = experiment: Test Example 5: effect on crop by foliage application, plastic box (symbol d); settings: 320 g/ha, 3 weeks after application
Outline: (§2)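 Box culture: sterile diluvial soil, seeds spot-sown, ~1.5 cm cover, raised under glass at 25–30° C.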

Setaria viridis [2] = experiment: Test Example 5: herbicidal effect by foliage application, plastic box (symbol G); settings: 320 g/ha, 3 weeks after application
Outline: (§3)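 Leaf-applied emulsion, water-diluted to a preset herbicide dose, on two-week-old seedlings raised in a 25° C. to 30° C. greenhouse; injury rated at 3 weeks using earlier criteria.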

Avena fatua [3] = experiment: Test Example 5: herbicidal effect by foliage application, plastic box (symbol I); settings: 320 g/ha, 3 weeks after application
Outline: as §3

Digitaria ciliaris = experiment: Test Example 5: herbicidal effect by foliage application, plastic box (symbol F); settings: 320 g/ha, 3 weeks after application
Outline: as §3

Scirpus juncoides = experiment: Test Example 1: herbicidal activity, application before weed generation in submerged conditions (symbol B); settings: application herbicide amount 320 g/ha
Outline: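 Application before weed emergence: an aqueous dilution of the emulsion formulation was poured onto the surface of 4 cm-deep floodwater on the day of sowing. Effect was judged after 3 weeks (greenhouse, 25–30 °C).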

Chenopodium album = experiment: Test Example 5: herbicidal effect by foliage application, plastic box (symbol O); settings: 320 g/ha, 3 weeks after application
Outline: as §3

rapeseed [4] = experiment: Test Example 5: effect on crop by foliage application, plastic box (symbol g); settings: 320 g/ha, 3 weeks after application
Outline: as §2

Monochoria vaginalis = experiment: Test Example 2: herbicidal activity, application during weed generation in submerged conditions (symbol C); settings: Table 23; application herbicide amount 320 g/ha; grade 0-5 by criteria of Test Example 1
Outline: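 Steps: fill pots with alluvial soil; add water to 4 cm depth; co-sow the three weeds; grow at 25° C. to 30° C. under glass; at 1–2 leaves, dose the floodwater with diluted emulsion; rate damage visually after 3 weeks.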

Veronica persica [5] = experiment: Test Example 5: herbicidal effect by foliage application, plastic box (symbol R); settings: 320 g/ha, 3 weeks after application
Outline: as §3

[6] = system: Echinochloa crus-galli var. crus-galli; experiment: Test Example 5: herbicidal effect by foliage application, plastic box (symbol H); settings: 320 g/ha, 3 weeks after application
Outline: as §3

Abutilon theophrasti = experiment: Test Example 5: herbicidal effect by foliage application, plastic box (symbol M); settings: 320 g/ha, 3 weeks after application
Outline: as §3

Setaria viridis [7] = experiment: Test Example 4: herbicidal effect by soil treatment (symbol G); settings: 320 g/ha
Outline: as §1

Avena fatua [8] = experiment: Test Example 4: herbicidal effect by soil treatment (symbol I); settings: 320 g/ha
Outline: as §1

rapeseed [9] = experiment: Test Example 4: effect on crop by soil treatment (symbol g); settings: 320 g/ha
Outline: (§4)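 Plants grew in a 25° C. to 30° C. greenhouse after spot-sowing of seeds, including beet, rapeseed, wheat and rice, into sterilized diluvial soil under roughly 1.5 cm of cover soil.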

rice = experiment: Test Example 4: effect on crop by soil treatment (symbol b); settings: 320 g/ha
Outline: as §4

Apera spica-venti [10] = experiment: Test Example 5: herbicidal effect by foliage application, plastic box (symbol L); settings: 320 g/ha, 3 weeks after application
Outline: as §3

Veronica persica [11] = experiment: Test Example 4: herbicidal effect by soil treatment (symbol R); settings: 320 g/ha
Outline: as §1

Compound	L: Apera spica-venti, herbicidal effect grade (Apera spica-venti [1])	d: soybean, effect on crop (criteria 0-5) (soybean)	G: Setaria viridis, herbicidal effect (criteria 0-5) (Setaria viridis [2])	I: Avena fatua, herbicidal effect (criteria 0-5) (Avena fatua [3])	F: Digitaria ciliaris, herbicidal effect (criteria 0-5) (Digitaria ciliaris)	Herbicidal effect grade, B: Scirpus juncoides (Scirpus juncoides)	O: Chenopodium album, herbicidal effect (criteria 0-5) (Chenopodium album)	g: rapeseed, effect on crop (criteria 0-5) (rapeseed [4])	Herbicidal effect grade, C: Monochoria vaginalis (Monochoria vaginalis)	R: Veronica persica, herbicidal effect (criteria 0-5) (Veronica persica [5])	H: Echinochloa crus-galli var. crus-galli, herbicidal effect (criteria 0-5) [6]	M: Abutilon theophrasti, herbicidal effect (criteria 0-5) (Abutilon theophrasti)	G: Setaria viridis, herbicidal effect grade (Setaria viridis [7])	I: Avena fatua, herbicidal effect grade (Avena fatua [8])	g: rapeseed, effect grade on crop (rapeseed [9])	b: directly sowed rice plant, effect grade on crop (rice)	L: Apera spica-venti, herbicidal effect (criteria 0-5) (Apera spica-venti [10])	R: Veronica persica, herbicidal effect grade (Veronica persica [11])
CON=C(C)CC1CC(OC(=O)C=Cc2ccco2)=C(c2c(C)cc(C)cc2C)C1=O (stereo not drawn) [1-091]	5 (Herbicidal ratio of 90% or more (almost completely withered))	1 (Herbicidal ratio of 5% or higher and lower than 20%)	5 (Herbicidal ratio of 90% or more (almost completely withered))	5 (Herbicidal ratio of 90% or more (almost completely withered))	5 (Herbicidal ratio of 90% or more (almost completely withered))	5 (Herbicidal ratio of 90% or more (almost completely withered))	0 (Herbicidal ratio of 5% or lower (almost no effect))	4 (Herbicidal ratio of 70% or higher and lower than 90%)	0 (Herbicidal ratio of 5% or lower (almost no effect))	1 (Herbicidal ratio of 5% or higher and lower than 20%)	5 (Herbicidal ratio of 90% or more (almost completely withered))	4 (Herbicidal ratio of 70% or higher and lower than 90%)	5 (Herbicidal ratio of 90% or more (almost completely withered))	3 (Herbicidal ratio of 40% or higher and lower than 70%)	3 (Herbicidal ratio of 40% or higher and lower than 70%)	5 (Herbicidal ratio of 90% or more (almost completely withered))	5 (Herbicidal ratio of 90% or more (almost completely withered))	0 (Herbicidal ratio of 5% or lower (almost no effect))
CON=C(C)CC1CC(OC(=O)COCC(F)(F)F)=C(c2c(C)cc(C)cc2C)C1=O (stereo not drawn) [1-092]	5 (Herbicidal ratio of 90% or more (almost completely withered))	0 (Herbicidal ratio of 5% or lower (almost no effect))	5 (Herbicidal ratio of 90% or more (almost completely withered))	2 (Herbicidal ratio of 20% or higher and lower than 40%)	5 (Herbicidal ratio of 90% or more (almost completely withered))	5 (Herbicidal ratio of 90% or more (almost completely withered))	0 (Herbicidal ratio of 5% or lower (almost no effect))	4 (Herbicidal ratio of 70% or higher and lower than 90%)	0 (Herbicidal ratio of 5% or lower (almost no effect))	0 (Herbicidal ratio of 5% or lower (almost no effect))	5 (Herbicidal ratio of 90% or more (almost completely withered))	3 (Herbicidal ratio of 40% or higher and lower than 70%)	5 (Herbicidal ratio of 90% or more (almost completely withered))	2 (Herbicidal ratio of 20% or higher and lower than 40%)	4 (Herbicidal ratio of 70% or higher and lower than 90%)	5 (Herbicidal ratio of 90% or more (almost completely withered))	5 (Herbicidal ratio of 90% or more (almost completely withered))	0 (Herbicidal ratio of 5% or lower (almost no effect))

From patent US11000033B2, “Ketone or oxime compound, and herbicide” (NISSAN CHEMICAL CORPORATION, priority 2014, dated 2021)
